Results from the supplement of paper PMC11061612.

Experiments:
Palbociclib = compound: CC(=O)c1c(C)c2cnc(Nc3ccc(N4CCNCC4)cn3)nc2n(C2CCCC2)c1=O [Palbociclib]; conditions: max 10 µM
In short: (§1)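 Cancer cell lines in 1536-well plates (7.5 μl DMEM/F12 or RPMI, 10% FBS) were held 24 hours at 37°C and 5% CO2 and then dosed for 72 hours at a final DMSO of typically 0.2%. Viability was taken from CellTiter-Glo 2.0 luminescence, scaled between blank-well and DMSO-well means. Curves were fitted as two-parameter logistic models with a non-linear mixed effects model, from which the single-agent IC50 was taken.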

Dasatinib = compound: CC1=C(C(=CC=C1)Cl)NC(=O)C2=CN=C(S2)NC3=CC(=NC(=N3)C)N4CCN(CC4)CCO [Dasatinib]; conditions: max 2 µM
In short: as §1

Prexasertib = compound: COc1cccc(OCCCN)c1-c1cc(Nc2cnc(C#N)cn2)n[nH]1 [Prexasertib]; conditions: max 1 µM
In short: as §1

AZD4320 = compound: CN(CC[C@H](CSC1=CC=CC=C1)NC2=C(C=C(C=C2)S(=O)(=O)NC(=O)C3=CC=C(C=C3)N4CCC(CC4)[C@H](C5=CC=CC=C5C6=CC=C(C=C6)Cl)O)S(=O)(=O)C(F)(F)F)CCO [AZD4320]; conditions: max 1 µM
In short: as §1

Savolitinib = compound: C[C@@H](c1ccc2nccn2c1)n1nnc2ncc(-c3cnn(C)c3)nc21 [Savolitinib]; conditions: max 1 µM
In short: as §1

AZD1775 = compound: C=CCn1c(=O)c2cnc(Nc3ccc(N4CCN(C)CC4)cc3)nc2n1-c1cccc(C(C)(C)O)n1 [AZD1775]; conditions: max 3 µM
In short: as §1

SG3199 = compound: CC1=CN2[C@@H](C1)C=NC3=CC(=C(C=C3C2=O)OC)OCCCCCOC4=C(C=C5C(=C4)N=C[C@@H]6CC(=CN6C5=O)C)OC [SG3199]; conditions: max 0.001 µM
In short: as §1

AZD7648 = compound: Cc1cc2ncnn2cc1Nc1ncc2c(n1)n(C1CCOCC1)c(=O)n2C [AZD7648]; conditions: max 10 µM
In short: as §1

Gefitinib = compound: COc1cc2ncnc(Nc3ccc(F)c(Cl)c3)c2cc1OCCCN1CCOCC1 [Gefitinib]; conditions: max 10 µM
In short: as §1

AZD8186 = compound: C[C@@H](Nc1cc(F)cc(F)c1)c1cc(C(=O)N(C)C)cc2c(=O)cc(N3CCOCC3)oc12 [AZD8186]; conditions: max 10 µM
In short: as §1

AZD2811 = compound: CCN(CCO)CCCOc1ccc2c(Nc3cc(CC(=O)Nc4cccc(F)c4)[nH]n3)ncnc2c1 [AZD2811]; conditions: max 1 µM
In short: as §1

Olaparib = compound: O=C(c1cc(Cc2n[nH]c(=O)c3ccccc23)ccc1F)N1CCN(C(=O)C2CC2)CC1 [Olaparib]; conditions: max 10 µM
In short: as §1

Venetoclax = compound: CC1(C)CCC(CN2CCN(c3ccc(C(=O)NS(=O)(=O)c4ccc(NCC5CCOCC5)c([N+](=O)[O-])c4)c(Oc4cnc5[nH]ccc5c4)c3)CC2)=C(c2ccc(Cl)cc2)C1 [Venetoclax]; conditions: max 1 µM
In short: as §1

Paclitaxel = compound: CC(=O)O[C@H]1C(=O)[C@@]2(C)[C@H]([C@H](OC(=O)c3ccccc3)[C@]3(O)C[C@H](OC(=O)[C@H](O)[C@@H](NC(=O)c4ccccc4)c4ccccc4)C(C)=C1C3(C)C)[C@]1(OC(C)=O)CO[C@@H]1C[C@@H]2O [Paclitaxel]; conditions: max 3 µM
In short: as §1

Carboplatin = compound: C1CC(C1)(C(=O)[O-])C(=O)[O-].N.N.[Pt+2] [Carboplatin]; conditions: max 10 µM
In short: as §1

Doxorubicin = compound: COc1cccc2c1C(=O)c1c(O)c3c(c(O)c1C2=O)C[C@@](O)(C(=O)CO)C[C@@H]3O[C@H]1C[C@H](N)[C@H](O)[C@H](C)O1 [Doxorubicin]; conditions: max 1 µM
In short: as §1

SN-38 = compound: CCc1c2c(nc3ccc(O)cc13)-c1cc3c(c(=O)n1C2)COC(=O)[C@]3(O)CC [SN-38]; conditions: max 0.3 µM
In short: as §1

Etoposide = compound: COc1cc([C@@H]2c3cc4c(cc3[C@@H](O[C@@H]3O[C@@H]5CO[C@@H](C)O[C@H]5[C@H](O)[C@H]3O)[C@H]3COC(=O)[C@H]23)OCO4)cc(OC)c1O [Etoposide]; conditions: max 10 µM
In short: as §1

5-Fluorouracil = compound: O=c1[nH]cc(F)c(=O)[nH]1 [5-Fluorouracil]; conditions: max 20 µM
In short: as §1

AZD0156 = compound: CN(C)CCCOc1ccc(-c2ccc3ncc4c(c3c2)n(C2CCOCC2)c(=O)n4C)cn1 [AZD0156]; conditions: max 3 µM
In short: as §1

Lapatinib = compound: CS(=O)(=O)CCNCc1ccc(-c2ccc3ncnc(Nc4ccc(OCc5cccc(F)c5)c(Cl)c4)c3c2)o1 [Lapatinib]; conditions: max 10 µM
In short: as §1

MK-2206 = compound: NC1(c2ccc(-c3nc4ccn5c(=O)[nH]nc5c4cc3-c3ccccc3)cc2)CCC1 [MK-2206]; conditions: max 10 µM
In short: as §1

AZD1390 = compound: CC(C)n1c(=O)n(C)c2cnc3cc(F)c(-c4ccc(OCCCN5CCCCC5)nc4)cc3c21 [AZD1390]; conditions: max 0.3 µM
In short: as §1

Alisertib = compound: COc1cc(Nc2ncc3c(n2)-c2ccc(Cl)cc2C(c2c(F)cccc2OC)=NC3)ccc1C(=O)O [Alisertib]; conditions: max 10 µM
In short: as §1

AZD5153 = compound: COc1nnc2ccc(N3CCC(c4ccc(OCCN5CCN(C)C(=O)[C@H]5C)cc4)CC3)nn12 [AZD5153]; conditions: max 1 µM
In short: as §1

Trametinib = compound: CC(=O)Nc1cccc(-n2c(=O)n(C3CC3)c(=O)c3c(Nc4ccc(I)cc4F)n(C)c(=O)c(C)c32)c1 [Trametinib]; conditions: max 1 µM
In short: as §1

Gemcitabine = compound: Nc1ccn([C@@H]2O[C@H](CO)[C@@H](O)C2(F)F)c(=O)n1 [Gemcitabine]; conditions: max 0.3 µM
In short: as §1

AZD6738 = compound: C[C@@H]1COCCN1C2=NC(=NC(=C2)C3(CC3)[S@](=N)(=O)C)C4=C5C=CNC5=NC=C4 [AZD6738]; conditions: max 10 µM
In short: as §1

Taselisib = compound: Cc1nc(-c2cn3c(n2)-c2ccc(-c4cnn(C(C)(C)C(N)=O)c4)cc2OCC3)n(C(C)C)n1 [Taselisib]; conditions: max 10 µM
In short: as §1

AZD5991 = compound: Cc1c2c(nn1C)CSCc1cc(n(C)n1)CSc1cc(c3ccccc3c1)OCCCc1c(C(=O)O)n(C)c3c-2c(Cl)ccc13 [AZD5991]; conditions: max 1 µM
In short: as §1

AZD5363 = compound: C1CN(CCC1(C(=O)N[C@@H](CCO)C2=CC=C(C=C2)Cl)N)C3=NC=NC4=C3C=CN4 [AZD5363]; conditions: max 10 µM
In short: as §1

Selumetinib = compound: Cn1cnc2c(F)c(Nc3ccc(Br)cc3Cl)c(C(=O)NOCCO)cc21 [Selumetinib]; conditions: max 10 µM
In short: as §1

[1] = compound: O=C(Nc1ccc2[nH]nc(-c3ccncc3)c2c1)[C@@H]1CCN(CC(=O)N2CCN(c3ccc(-c4ncccn4)cc3)CC2)C1; conditions: max 5 µM
In short: as §1

SRA737 = compound: N#Cc1cnc(Nc2cc(NC[C@H]3CNCCO3)c(C(F)(F)F)cn2)cn1 [SRA737]; conditions: max 10 µM
In short: as §1

Crizotinib = compound: C[C@@H](Oc1cc(-c2cnn(C3CCNCC3)c2)cnc1N)c1c(Cl)ccc(F)c1Cl [Crizotinib]; conditions: max 10 µM
In short: as §1

Cell Line: SW1463 (Colorectal Carcinoma)
- IC50, cell viability 72 h (Palbociclib): 7.12 µM
- IC50, cell viability 72 h (Dasatinib): > 2 µM
- IC50, cell viability 72 h (Prexasertib): 0.288 µM
- IC50, cell viability 72 h (AZD4320): > 1 µM
- IC50, cell viability 72 h (Savolitinib): > 1 µM
- IC50, cell viability 72 h (AZD1775): > 3 µM
- IC50, cell viability 72 h (SG3199): > 0.001 µM
- IC50, cell viability 72 h (AZD7648): > 10 µM
- IC50, cell viability 72 h (Gefitinib): 3.27 µM
- IC50, cell viability 72 h (AZD8186): > 10 µM
- IC50, cell viability 72 h (AZD2811): > 1 µM
- IC50, cell viability 72 h (Olaparib): > 10 µM
- IC50, cell viability 72 h (Venetoclax): > 1 µM
- IC50, cell viability 72 h (Paclitaxel): > 3 µM
- IC50, cell viability 72 h (Carboplatin): > 10 µM
- IC50, cell viability 72 h (Doxorubicin): > 1 µM
- IC50, cell viability 72 h (SN-38): > 0.3 µM
- IC50, cell viability 72 h (Etoposide): > 10 µM
- IC50, cell viability 72 h (5-Fluorouracil): > 20 µM
- IC50, cell viability 72 h (AZD0156): > 3 µM
- IC50, cell viability 72 h (Lapatinib): > 10 µM
- IC50, cell viability 72 h (MK-2206): > 10 µM
- IC50, cell viability 72 h (AZD1390): > 0.3 µM
- IC50, cell viability 72 h (Alisertib): > 10 µM
- IC50, cell viability 72 h (AZD5153): > 1 µM
- IC50, cell viability 72 h (Trametinib): 0.0784 µM
- IC50, cell viability 72 h (Gemcitabine): > 0.3 µM
- IC50, cell viability 72 h (AZD6738): > 10 µM
- IC50, cell viability 72 h (Taselisib): > 10 µM
- IC50, cell viability 72 h (AZD5991): > 1 µM
- IC50, cell viability 72 h (AZD5363): > 10 µM
- IC50, cell viability 72 h (Selumetinib): 4.95 µM
- IC50, cell viability 72 h [1]: > 5 µM
- IC50, cell viability 72 h (SRA737): > 10 µM
- IC50, cell viability 72 h (Crizotinib): > 10 µM
